{
  "source": "patent US9345781B2",
  "about": "“Targeted dendrimer-drug conjugates” (priority 2009, dated 2016)",
  "key": {"[1]": {"tested_on": "tumors of nude tumor bearing mice", "assay": "Tumor growth in nude tumor bearing mice after intravenous dosing", "format": "in vivo", "conditions": "one dose/week for 3 weeks", "method": "(§1) Nude tumor bearing mice were administered by intravenous injection a single dose of 6, 8, 10, or 12 mg/kg of free DOX (one dose/week for 3 weeks). The mice were sacrificed two weeks after the last administration and the tumors were harvested for analysis. Tumor size was measured and compared to the size of tumors harvested from mice administered a saline control.\nThe above experiment was repeated with an 8 mg/kg dose of free DOX and two additional test groups of mice: one group of mice were administered a dendrimer conjugate comprising a G5 dendrimer conjugated to DOX (G5-OXY-DOX) comprising an azo linkage comprising the structure of\n(§2) Also, in this experiment, instead of being sacrificed two weeks after the last administration, the tumor volumes of the mice were measured one week after the last administration and then measured again four weeks later."}, "[2]": {"assay": "Toxicity and body weight of treated mice", "format": "in vivo", "conditions": "one dose/week for 3 weeks", "method": "as §1, §2"}, "HepG2 cells": {"tested_on": "HepG2 cells", "assay": "Clonogenic survival of HepG2 cells", "format": "cell-based, human", "conditions": "72 hour incubation, equivalent DOX concentration", "quoted_text": "(§3) We compared the anticancer activity of G5-L(x)-DOX conjugates to free DOX as a function of concentration by measuring their effect on clonogenic survival of HepG2 and Hep3B hepatic cancer cells. Briefly, HepG2 and Hep3B cells were seeded at a density of 2.5×10^5 cells/T-25 flask and allowed to adhere overnight before incubating with different concentrations (1 nM-100 μM equivalent concentration of DOX) of free DOX or G5-L(x)-DOX conjugates dissolved in OPTI-MEM solution. […] After 72 hours HepG2 and Hep3B cells were washed with cold PBS, trypsinized using a 0.25% trypsin-EDTA solution and centrifuged at 1,000 rpm for 5 minutes. Cell pellets were suspended in fresh culture medium, counted, and plated in 6-well plates at a seeding density of 500-10,000 cells/well and allowed to grow undisturbed for 14 days under normal culture conditions. The formed colonies were gently washed with cold PBS, treated with 1 mL methanol/glacial acetic acid (75/25) and 0.04% w/v trypan blue for 5 minutes and counted. Plating efficiency (PE) for each cell line was calculated by dividing the number of colonies by the cell seeding density for cells incubated with fresh culture medium (negative control). […] All samples were prepared in triplicate for each seeding density and treatment condition, and results expressed as the average % SF±SEM. […]"}, "Hep3B cells": {"tested_on": "Hep3B cells", "assay": "Clonogenic survival of Hep3B cells", "format": "cell-based, human", "quoted_text": "as §3"}, "rat cardiomyocytes": {"tested_on": "rat cardiomyocytes", "assay": "LDH leakage cell viability assay in rat cardiomyocytes", "format": "cell-based", "conditions": "100 μM eq. DOX, 8 hour incubation, versus blank medium", "method": "Toxicity of G5-L4-DOX conjugates and free DOX in rat cardiomyocytes was evaluated using the lactate dehydrogenase (LDH) leakage cell viability assay. Briefly, each well was counted for total number of cardiomyocytes before an 8 hour treatment with free DOX or G5-L4-DOX (100 μM eq. DOX) conjugates dissolved in 0.5 mL HBSS. The amount of LDH released to the medium was assayed by mixing […] of the treatment solution in a 96-well plate with the enzyme substrate (1:1) included in the assay kit following the manufacturer's guidelines. […] Amount of LDH leakage for treatment solution and controls were normalized to the number of seeded cells, and all values compared to the positive control (set as 100% LDH leakage reference) to obtain the percentage of LDH leakage as a function of treatment."}},
  "data": [
    {"smiles": "COc1cccc2c1C(=O)c1c(O)c3c(c(O)c1C2=O)C[C@@](O)(C(=O)CO)C[C@@H]3O[C@H]1C[C@H](N)[C@H](O)[C@H](C)O1.Cl", "note": "(relative stereo) [Free DOX, 5,12-Naphthacenedione, 10-[(3-amino-2,3,6-trideoxy-α-L-lyxo-hexopyranosyl)oxy]-7,8,9,10-tetrahydro-6,8,11-trihydroxy-8-(hydroxylacetyl)-1-methoxy-, hydrochloride (8S-cis)]", "values": [
      {"measurement": "reduction in tumor size versus saline control", "setting": "[1]; 6 mg/kg i.v.", "value": "did not cause any substantial reduction in tumor size"},
      {"measurement": "tumor growth versus control mice", "setting": "[1]; 8 and 10 mg/kg i.v.", "value": "inhibited tumor growth"},
      {"measurement": "toxicity to mice", "setting": "[2]; 10 mg/kg i.v.", "value": "slight increase in toxicity"},
      {"measurement": "toxicity to mice", "setting": "[2]; 12 mg/kg i.v.", "value": "too toxic to mice"},
      {"measurement": "IC50", "setting": "HepG2 cells", "value": 10, "unit": "nM"},
      {"measurement": "fold reduction in IC50 in Hep3B compared to HepG2 cells", "setting": "Hep3B cells; 72 hours", "value": 5, "unit": "fold"},
      {"measurement": "IC50", "setting": "Hep3B cells; clonogenic survival, 72 hour incubation, equivalent DOX concentration", "value": 2, "unit": "nM"},
      {"measurement": "LDH leakage / cardiac toxicity", "setting": "rat cardiomyocytes", "value": "nearly double the % of LDH leakage"},
      {"measurement": "LDH leakage / cardiac toxicity", "setting": "rat cardiomyocytes; listed as free DOX", "value": "toxic"}
    ]}
  ]
}
